Measurements published in patent US6362164B1, “Combination of a somatostatin analogue and a rapamycin” (Novartis AG, priority 1996, dated 2002).

Experiments:
[1] = test system: AR42J (AR4-2J) rat pancreatic tumor cell line; experiment: In vivo AR42J tumor growth in nude mice; details: after 4 weeks; s.c. AR42J tumors in female nude mice; Compound B or rapamycin 5 mg/kg p.o., octreotide slow release 30 mg/kg s.c. single inj.; control 4020 (3 week value)
Experimental: Cultures are propagated in DMEM supplemented with 10% fetal calf serum (FCS) at 5% CO2. Cells are grown in the absence of antibiotics or antifungal agents. Female nude mice (nu/nu Balbc-A from Iffa Credo, Lyon, France) weighing 19-22 g, are kept in groups of 5 animals in macrolon cages (type III, 16×22×11 cm). The cages are placed in ventilated cabinets (Iffa Credo) that are maintained at 24±1° C. The animals have free access to drinking water and a pathogen-free rodent diet (Diet A, Kliba, Basel, Switzerland). To initiate tumors from cultured cells, AR42J cells are trypsinized and 10×10^6 tumor cells (in 0.2 ml) are injected subcutaneously (s.c.) into both flanks of nude mice. […] Control animals receive placebo. Animals are treated as indicated below for 3 weeks with single agents or the drug combination. The somatostatin analogue is given as a single injection of a slow release form at 30 mg/kg s.c. The size of the tumors is determined with a caliper. To calculate the tumor volume in ml, the equation “volume (ellipsoid)=length×depth×height×0.52” was used.
After 4 weeks, the following tumor sizes were determined.

AR42J cells = experiment: In vitro AR42J cell growth assay (SRB staining, delta OD); type: cell-based, rat; design: Cell Growth (ΔOD): unit not given here; details: octreotide 1.2 nM, Compound B 12.0 nM, combination 1.2 + 12.0 nM; for Cell Growth (% of CONTROL) Observed: control = 100

| Molecule | Tumor Volume [1] [mm^3] | Cell Growth (ΔOD) (AR42J cells; DMEM+2.5% FCS, control 664 ± 9) | Cell Growth (% of CONTROL) Observed (AR42J cells) [%] |
| --- | --- | --- | --- |
| Rapamycin | 2748 | – | – |
| octreotide | – | 397 ± 16 | 59.8 |
| CO[C@H]1C[C@@H]2CC[C@@H](C)[C@@](O)(O2)C(=O)C(=O)N2CCCC[C@H]2C(=O)O[C@H]([C@H](C)C[C@@H]2CC[C@@H](OCCO)[C@H](OC)C2)CC(=O)[C@H](C)/C=C(\C)[C@@H](O)[C@@H](OC)C(=O)[C@H](C)C[C@H](C)/C=C/C=C/C=C/1C [Compound B, 40-O-(2-hydroxy)ethyl-rapamycin] | 3685 | – | 63.3 |
